Non-standard residues stand in square brackets, D forms with d. Residues, ends and D or L forms follow the SMILES beside them. Groups on a side chain read outwards from the residue. *: point of attachment. dPhe(4-Cl) = N[C@H](Cc1ccc(Cl)cc1)C(=O)O; NEt2 = CCN(CC)*
Legend:
[1] = tested on: MCF-7 xenograft; assay: In vivo antitumour effect on MCF-7 xenograft in immunosuppressed mice; parameters: species or system CBA/Ca mice; conditions: MCF-7 xenograft; for Tumour volume as control (%): MI-1892 2 x 25 µg
Method: (§1) The immunosuppression of mice was carried out by using the method of Steel et al. [Br. J. Cancer, 37, 224-230 (1978)]. Immunosuppression and xeno-transplantation
(§2) CBA-Ca female mice of about 6 weeks old were thymectomized and then, after one week, they were irradiated with 60Co (whole body irradiation; the lethal dose is 9.5 Gray). Within 24 hours 3 to 5 x 10^5 myelocytes were injected into the animals. Beneath the skin of the immunosuppressed mice 2 x 10^7 tumour cells or, in the case of later passages, […] were implanted. […] The treatment with steroid hormone was stopped by at least one week before beginning the investigation.
In the case of MCF-7 tumours (xenografts) the examinations were carried out with passages being in the phase of the 37th and 38th, respectively, transplantations.
In the case of mice bearing MCF-7 xenograft, the treatment was begun in the 4th week following xeno-transplantation.
(§3) Recent investigations have begun on 28 animals bearing MCF-7 xenograft and on 28 animals bearing MDA-MB-231 xenograft. On animals bearing MCF-7 tumour the treatment was commenced in the 5th week following xeno-transplantation; the tumour volume was 205 to 225 mm^3. On animals bearing MDA-MB-231 tumour, the treatment was started in the 4th week after xeno-transplantation with a tumour volume of 140 to 150 mm^3. […] The control groups were daily treated with physiological saline s.c. (Each treated group consisting of 7 animals).

[2] = tested on: PC3; assay: In vitro inhibition of cell proliferation (Example 19); type: cell-based, human; conditions: 30 µM, peptide alone, two treatments on days 2 and 4
Method: (§4) The procedure of treatment was as follows. After trypsinization the cells, 400,000 cells of MCF-7, MDA-MB-231 human mammary carcinoma, PC3 human prostate carcinoma or Ishikawa human endometrium tumour each were passed into Petri dishes of 10 cm in diameter. Starting from the day following transfer, the cells were treated with the substances to be tested in solution prepared with the nutrient medium during the exponential growth phase. The cultures were treated with 1 to 50 µM (calculated for the total volume of the culture) or MI-1544 GnRH antagonist, MI-1892 chicken GnRH antagonist or SJ-1004 GnRH antagonist analogues as well as synthetic lamprey GnRH-III hormone every two days and the cell count was determined on the 7th day.

[3] = tested on: humoral immune response; assay: Humoral immune response (antibody production of B-lymphocytes); type: in vivo; conditions: mice
From the text: (§5) The immunosuppressive side effect of cytostatics used in tumour therapy is commonly known. This effect can be compensated to a certain grade by various immunostimulants (endotoxin, levamisole). Polypeptides with much […] molecular weights (about 40,000 to 80,000) are also capable of protecting against immunosuppressive effect [Gaál et al: J. Biol. Resp. Modif., 5, 148-159 (1986)]. The molecular weight of the novel polyanionic P-GFLG-OH macromolecule tested by us is about 10,000, that of MI-1892 is about 2000, i.e. relatively low; therefore, their immunostimulatory activity was unexpected.

[4] = tested on: Ishikawa human endometrium carcinoma cell line; assay: Inhibition of colony formation (dose-survival relation, Example 18); type: cell-based; conditions: 50 µM
Method: (§6) In the case of cytostatics the cell-damaging effect is not cell-specific. […] One part of the arrested cells again go into the cycle, the other part may perish (apoptosis). […] The investigations were carried out on MCF-7 and MDA-MB-231 human mammary carcinoma cell lines, PC3 human prostate 15 carcinoma cell line and Ishikawa human endometrium carcinoma cell line. Three hundred cells were set into Petri dishes of 3.5 cm in diameter each. The treatment was carried out once, 24 hours following the explantation, then the colonies formed were counted after 9 to 12 days.

[5] = tested on: PC3 human prostate carcinoma cell line; assay: as above; type: cell-based; conditions: 50 µM
Method: as §6

[6] = tested on: Ishikawa; conditions: 30 µM, peptide alone, two treatments on days 2 and 4
Method: as §4, with “antagonist analogues as well as synthetic lamprey GnRH-III hormone every two days and the cell count was determined” left out

[7] = tested on: cellular immune response; assay: Cellular immune response (rosette formation against BRBC antigen); type: in vivo; conditions: mice; 100 µg/mouse
From the text: as §5

[8] = tested on: MXT mouse mammary tumour; assay: In vivo antitumour effect on mice bearing MXT mouse mammary tumour; parameters: species or system CBA/Ca mice
Method: The MXT mouse mammary carcinoma contains ER and PgR proteins; furthermore, it contains also GnRH receptors; therefore, this in vivo tumour model is suitable for studying both the direct and indirect effects. The treatment of mice bearing MXT mammary tumour was commenced on the day following transplantation. […] Table VI The animals were daily treated in s.c. route starting from the day following transplantation of MXT mouse mammary tumour. […] MI-1544: 75 µg/day/animal; MI-1892: 75 µg/day/animal.

[9] = tested on: MDA-MB-231 xenograft; assay: In vivo antitumour effect on MDA-MB-231 xenograft in immunosuppressed mice; parameters: species or system CBA/Ca mice
Method: as §1, §2, §3
A more recent study was started on 28 animals bearing MDA-MB-231 xenograft. The treatment was begun in the 4th or 5th week following xenotransplantation. The tumour volume was 0.165 to 0.194 cm^3. […] (For treatment of the control group, see the preceding Examples). Each group consisted of 7 animals.

[10] = tested on: human tumour cell lines; assay: Inhibition of colony formation (Example 18), cell line not given; type: cell-based; conditions: on any cell line (Table 1)
Method: as §6, with “The investigation gives a precise information about the cell-damaging effect of the tested substance. In” for “In”

[11] = tested on: MCF-7 human mammary carcinoma cell line; assay: Inhibition of colony formation (dose-survival relation, Example 18); type: cell-based; conditions: 50 µM (active substance), treated once
Method: as §6

[12] = Ovulation / cycle of female rats during prolonged treatment; type: in vivo; conditions: high dose of the coupled GnRH-III; three cycles observed
From the text: In 1993, researchers isolated and synthesized the Lamprey-III-GnRH decapeptide from lamprey (Petromyzon marinus) (p[…]NH2). This Lamprey-III-GnRH (herein below GnRH-III) exerts a significant tumour growth-inhibiting effect on human mammary tumour cell lines.

[13] = tested on: MCF-7; conditions: MCF-7; 30 µM active substance; conjugate, treated once; cell count on 7th day; listed as 11. P-GFLG-GnRH-III
Method: (§7) The procedure of treatment was as follows. After trypsinization the cells, 400,000 cells of MCF-7, MDA-MB-231 human mammary carcinoma, PC3 human prostate carcinoma or Ishikawa human endometrium tumour each were passed into Petri dishes of 10 cm in diameter. Starting from the day following transfer, the cells were treated with the substances to be tested in solution prepared with the nutrient medium during the exponential growth phase. […]

[14] = tested on: MDA-MB-231; conditions: MDA-MB-231; 30 µM active substance; conjugate, treated once; listed as 11. P-GFLG-GnRH-III
Method: as §7

[15] = MXT mouse mammary tumour, Treatment weeks: 13, 1x75 µg daily s.c.
[16] = MXT mouse mammary tumour, Treatment weeks: 20, 1x75 µg daily s.c.
[17] = Table V, treatment week 4, MI-1892 2x25 µg daily s.c.
[18] = Table V, treatment week 6, MI-1892 2x25 µg, conjugates 1x50 µg daily s.c.
[19] = MDA-MB-231 xenograft, after 9 week treatment, 100 µg daily s.c.
[20] = Table V, treatment week 2, 1x100 µg daily s.c.
[21] = Table V, treatment week 4, 1x100 µg daily s.c.
[22] = Table V, treatment week 6, 1x100 µg daily s.c.
[23] = week 0, daily s.c., 1 x 100 µg series
[24] = week 1, daily s.c., 1 x 100 µg series
[25] = week 2, daily s.c., 1 x 100 µg series
[26] = week 3, daily s.c., 1 x 100 µg series
[27] = week 4, daily s.c., 1 x 100 µg series
[28] = week 5, daily s.c., 1 x 100 µg series
[29] = week 6, daily s.c., 1 x 100 µg series
[30] = week 7, daily s.c., 1 x 100 µg series

## CCN(CC)C(=O)[C@H](CC(=O)N[C@@H](CC(C)C)C(=O)N[C@@H](CCC(N)=O)C(=O)N1CCC[C@H]1C(=O)N[C@H](C)C(N)=O)NC(=O)[C@H](CCCCN)NC(=O)[C@H](CO)NC(=O)[C@@H](Cc1c[nH]c2ccccc12)NC(=O)[C@@H](Cc1ccc(Cl)cc1)NC(=O)[C@@H](Cc1c[nH]c2ccccc12)NC(C)=O [MI-1892, Ac-D-Trp^1,3,D-Cpa^2,Lys^5,[β-Asp(DEA)]^6,D-Ala^10-hGnRH, reference compound] (Ac-[dW][dPhe(4-Cl)][dW]SKD([Leu-Gln-Pro-dA-NH2])-NEt2)
[1]; first study, end of 4th week, MI-1892 2 x 25 µg daily, conjugates 50 µg daily once
  decrease in the tumour volume in comparison to controls: 20%
[1]; treatment week 4
  Tumour volume as control (%): 78.5%
[1]; treatment week 6, conjugates 1 x 50 µg
  Tumour volume as control (%): 79%
[2]
  inhibition of proliferation: 33%
[3]; 50 µg/mouse
  increase of the humoral immune response: more than two-fold
[3]; 100 µg/mouse
  increase of the humoral immune response: three-fold
[4]
  % Inhibition of colony formation: 10%
[5]
  % Inhibition of colony formation: 5%
[6]
  inhibition of proliferation: 14%
[7]
  increase of the cellular immune response: two-fold
[8]; [15]
  Inhibition %: 51%
  Tumour volume as control (%): 49%
[8]; [16]
  Inhibition %: 39%
  Tumour volume as control (%): 61%
[8]; day 9, 75 µg/day/animal s.c.
  Tumour volume (cm^3): 0.61 cm^3
  Tumour volume as control (%): 86%
[8]; day 11, 75 µg/day/animal s.c.
  Tumour volume (cm^3): 1.05 cm^3
  Tumour volume as control (%): 58%
[8]; day 13, 75 µg/day/animal s.c.
  Tumour volume (cm^3): 1.59 cm^3
  Tumour volume as control (%): 49%
[8]; day 17, 75 µg/day/animal s.c.
  Tumour volume (cm^3): 3.17 cm^3
  Tumour volume as control (%): 62%
[8]; day 18, 75 µg/day/animal s.c.
  Tumour volume (cm^3): 4.8 cm^3
  Tumour volume as control (%): 64%
[8]; day 20, 75 µg/day/animal s.c.
  Tumour volume (cm^3): 5.73 cm^3
  Tumour volume as control (%): 61%
[8]; day 24, 75 µg/day/animal s.c.
  Tumour volume (cm^3): 6.32 cm^3
  Tumour volume as control (%): 50%
[8]; day 26, 75 µg/day/animal s.c.
  Tumour volume (cm^3): 11.30 cm^3
  Tumour volume as control (%): 82%
[9]; [17]
  Inhibition %: 24.5%
  Tumour volume as control (%): 75.5%
[9]; [18]
  Inhibition %: 22%
  Tumour volume as control (%): 78%

## {Lys[n-poly(N-vinylpyrrolidone-co-maleic acid)-Gly-Phe-Leu-Gly-]}^8,-GnRH-III [P-GFLG-GnRH-III]
[10]
  inhibition of colony formation: ≤ 16%
[4]
  % Inhibition of colony formation: 15%
[11]
  % Inhibition of colony formation: 9%
[5]
  % Inhibition of colony formation: 16%
[9]; MDA-MB-231 xenograft, 100 µg daily s.c., 6th week of treatment
  animals that became tumour-free: 2 animals from 7
[9]; [19]
  Volume (cm^3) of tumours: 0.613 ± 0.307 cm^3
  Weight (g) of tumours: 0.45 ± 0.4 g
[9]; [20]
  Inhibition %: 20%
  Tumour volume as control (%): 80%
[9]; [21]
  Inhibition %: 36%
  Tumour volume as control (%): 64%
[9]; [22]
  Inhibition %: 67%
  Tumour volume as control (%): 33%
[9]; [23]
  Tumour volume (cm^3): 0.17 cm^3
  Tumour volume as control (%): 104%
[9]; [24]
  Tumour volume (cm^3): 0.25 cm^3
  Tumour volume as control (%): 107%
[9]; [25]
  Tumour volume (cm^3): 0.33 cm^3
  Tumour volume as control (%): 80%
[9]; [26]
  Tumour volume (cm^3): 0.40 cm^3
  Tumour volume as control (%): 72%
[9]; [27]
  Tumour volume (cm^3): 0.41 cm^3
  Tumour volume as control (%): 64%
[9]; [28]
  Tumour volume (cm^3): 0.49 cm^3
  Tumour volume as control (%): 53%
[9]; [29]
  Tumour volume (cm^3): 0.40 cm^3
  Tumour volume as control (%): 32%
[9]; [30]
  Tumour volume (cm^3): 0.31 cm^3
  Tumour volume as control (%): 24%
[12]
  cycle of female rats (castration effect): not influenced
[13]
  % Inhibition of cell division (proliferation): 10%
[14]
  % Inhibition of cell division (proliferation): 11%

— patent publication EP0728012B1, “NOVEL GnRH ANALOGUES WITH ANTITUMOUR EFFECTS AND PHARMACEUTICAL COMPOSITIONS THEREOF” (Lovas, Sandor, priority 1994, dated 1996)
